{"source": "patent EP0504184B1", "about": "“ACTIVE AGENT AGAINST RETROVIRUS GROUP VIRUSES, COMPOSITIONS CONTAINING SAME AND THEIR USE” (PREVISAN S.A., priority 1989, dated 1991)", "tested_on": "virus VIH-1", "test": "Infectivity of pretreated HIV-1 virus for the Supt-1 line (p24 antigen in cell lysates, optical density; phase-contrast microscopy)", "assay_type": "cell-based", "conditions": "for multiplication du virus VIH-1 dans les cellules Supt-1: after 1, 10 and 30 minutes incubation with the agent at ordinary temperature; for Mesure d'infectivité du virus VIH-1 (D.O.492): p24 in Supt-1 lysates", "description": "Ces essais comprennent comme matériel de départ : • de la N, N'-dichloroazodicarbonamidine (chloroazodine) à 95 % pure. La pureté a été examinée par chromatographie en couche mince et par un test de carbone-hydrogène (v. BRAZ G.I. et cons., J. Applied Chem. (USSR) 17,565-9 (1944)). • un surnageant de cultures de cellules (Molt-3) continuellement productrices de virus VIH-1. Le surnageant viral utilisé a une activité de transcriptase inverse de 1 x 10^6 cpm/ml. • des cellules d'une lignée T humaine continue de phénotype T4 (Supt-1) cultivée en milieu RPMI, additionné de 10 % de sérum de veau foetal et de 1 % de glutamine.\nL' efficacité de la chloroazodine va être étudiée à deux niveaux : • a) action sur l'infectivité du virus VIH-1 pour la lignée Supt-1. • b) action sur l'intégration du génome viral dans l'ADN chromosomial des cellules Supt-1.\nOn fait incuber des préparations virales de VIH-1 à haut titre en présence de dilutions de chloroazodine de 1/1500 et de 1/3000 et pendant différents temps d'incubation. Pendant 30 minutes à 37°C, on traite préalablement les cellules Supt-1 par 10 µg/ml de polybrène, puis on les inocule avec les préparations de virus traités. On prévoit comme témoins, des cellules non inoculées, et des cellules inoculées par une préparation de virus non traités.\nOn détermine ensuite l'infectivité, à chaque passage cellulaire, de ces préparations en suivant la production virale (mesure de l'antigène p24 exprimé) dans les lysats cellulaires solubilisés des cellules Supt-1 examinées.\nLes mesures du pouvoir infectieux du virus VIH-1 après incubation avec de la chloroazodine ressortent des tableaux 1 à 3 suivants, ainsi que des figures 1 à 3 qui correspondent aux tableaux 1 à 3. Sur ces figures, on trouve en ordonnée la densité optique (D.O.) et en abscisse le nombre de jours après l'infection. Le trait plein représente le témoin non traite, le trait interrompu la dilution de 1/1500 de chloroazodine, et le trait pointillé la dilution de 1/3000 de chloroazodine.", "data": [{"compound": "NC(N=NC(N)=NCl)=NCl", "note": "[chloroazodine, N, N'-dichloroazodicarbonamidine]", "values": [{"measurement": "multiplication du virus VIH-1 dans les cellules Supt-1", "setting": "dilution 1/1500", "result": "empêche totalement le virus VIH-1 de se multiplier"}, {"measurement": "multiplication du virus VIH-1 dans les cellules Supt-1", "setting": "dilution 1/3000", "result": "empêche totalement le virus VIH-1 de se multiplier"}, {"measurement": "temps pour l'éradication totale des virus", "setting": "low concentration, in organic medium, conclusion from examples 3 to 5", "result": "≤ 1", "unit": "min"}, {"measurement": "effet cytopathogène", "setting": "phase-contrast microscopy, Supt-1 cells inoculated with virus pretreated with chloroazodine (control virus: syncytia from day 14)", "result": "aucun effet cytopathogène"}, {"measurement": "Mesure d'infectivité du virus VIH-1 (D.O.492)", "setting": "virus incubated 1 minute with chloroazodine 1/1500, 10 days after infection", "result": "0,174 ± 0,002"}, {"measurement": "Mesure d'infectivité du virus VIH-1 (D.O.492)", "setting": "virus incubated 1 minute with chloroazodine 1/1500, 14 days after infection", "result": "0,175 ± 0,016"}, {"measurement": "Mesure d'infectivité du virus VIH-1 (D.O.492)", "setting": "virus incubated 1 minute with chloroazodine 1/1500, 17 days after infection", "result": "0,152 ± 0,016"}, {"measurement": "Mesure d'infectivité du virus VIH-1 (D.O.492)", "setting": "virus incubated 1 minute with chloroazodine 1/1500, 21 days after infection", "result": "0,183 ± 0,026"}, {"measurement": "Mesure d'infectivité du virus VIH-1 (D.O.492)", "setting": "virus incubated 1 minute with chloroazodine 1/1500, 24 days after infection", "result": "0,180 ± 0,008"}, {"measurement": "Mesure d'infectivité du virus VIH-1 (D.O.492)", "setting": "virus incubated 1 minute with chloroazodine 1/3000, 10 days after infection", "result": "0,173 ± 0,009"}, {"measurement": "Mesure d'infectivité du virus VIH-1 (D.O.492)", "setting": "virus incubated 1 minute with chloroazodine 1/3000, 14 days after infection", "result": "0,149 ± 0,002"}, {"measurement": "Mesure d'infectivité du virus VIH-1 (D.O.492)", "setting": "virus incubated 1 minute with chloroazodine 1/3000, 17 days after infection", "result": "0,172 ± 0,016"}, {"measurement": "Mesure d'infectivité du virus VIH-1 (D.O.492)", "setting": "virus incubated 1 minute with chloroazodine 1/3000, 21 days after infection", "result": "0,202 ± 0,003"}, {"measurement": "Mesure d'infectivité du virus VIH-1 (D.O.492)", "setting": "virus incubated 1 minute with chloroazodine 1/3000, 24 days after infection", "result": "0,166 ± 0,004"}, {"measurement": "Mesure d'infectivité du virus VIH-1 (D.O.492)", "setting": "virus incubated 10 minutes with chloroazodine 1/1500, 10 days after infection", "result": "0,146 ± 0,004"}, {"measurement": "Mesure d'infectivité du virus VIH-1 (D.O.492)", "setting": "virus incubated 10 minutes with chloroazodine 1/1500, 14 days after infection", "result": "0,151 ± 0,006"}, {"measurement": "Mesure d'infectivité du virus VIH-1 (D.O.492)", "setting": "virus incubated 10 minutes with chloroazodine 1/1500, 17 days after infection", "result": "0,165 ± 0,013"}, {"measurement": "Mesure d'infectivité du virus VIH-1 (D.O.492)", "setting": "virus incubated 10 minutes with chloroazodine 1/1500, 21 days after infection", "result": "0,188 ± 0,016"}, {"measurement": "Mesure d'infectivité du virus VIH-1 (D.O.492)", "setting": "virus incubated 10 minutes with chloroazodine 1/1500, 24 days after infection", "result": "0,180 ± 0,008"}, {"measurement": "Mesure d'infectivité du virus VIH-1 (D.O.492)", "setting": "virus incubated 10 minutes with chloroazodine 1/3000, 10 days after infection", "result": "0,202 ± 0,021"}, {"measurement": "Mesure d'infectivité du virus VIH-1 (D.O.492)", "setting": "virus incubated 10 minutes with chloroazodine 1/3000, 14 days after infection", "result": "0,146 ± 0,010"}, {"measurement": "Mesure d'infectivité du virus VIH-1 (D.O.492)", "setting": "virus incubated 10 minutes with chloroazodine 1/3000, 17 days after infection", "result": "0,157 ± 0,005"}, {"measurement": "Mesure d'infectivité du virus VIH-1 (D.O.492)", "setting": "virus incubated 10 minutes with chloroazodine 1/3000, 21 days after infection", "result": "0,182 ± 0,018"}, {"measurement": "Mesure d'infectivité du virus VIH-1 (D.O.492)", "setting": "virus incubated 10 minutes with chloroazodine 1/3000, 24 days after infection", "result": "0,166 ± 0,004"}, {"measurement": "Mesure d'infectivité du virus VIH-1 (D.O.492)", "setting": "virus incubated 30 minutes with chloroazodine 1/1500, 10 days after infection", "result": "0,185 ± 0,008"}, {"measurement": "Mesure d'infectivité du virus VIH-1 (D.O.492)", "setting": "virus incubated 30 minutes with chloroazodine 1/1500, 14 days after infection", "result": "0,142 ± 0,010"}, {"measurement": "Mesure d'infectivité du virus VIH-1 (D.O.492)", "setting": "virus incubated 30 minutes with chloroazodine 1/1500, 17 days after infection", "result": "0,176 ± 0,004"}, {"measurement": "Mesure d'infectivité du virus VIH-1 (D.O.492)", "setting": "virus incubated 30 minutes with chloroazodine 1/1500, 21 days after infection", "result": "0,194 ± 0,007"}, {"measurement": "Mesure d'infectivité du virus VIH-1 (D.O.492)", "setting": "virus incubated 30 minutes with chloroazodine 1/1500, 24 days after infection", "result": "0,163 ± 0,003"}, {"measurement": "Mesure d'infectivité du virus VIH-1 (D.O.492)", "setting": "virus incubated 30 minutes with chloroazodine 1/3000, 10 days after infection", "result": "0,205 ± 0,013"}, {"measurement": "Mesure d'infectivité du virus VIH-1 (D.O.492)", "setting": "virus incubated 30 minutes with chloroazodine 1/3000, 14 days after infection", "result": "0,176 ± 0,005"}, {"measurement": "Mesure d'infectivité du virus VIH-1 (D.O.492)", "setting": "virus incubated 30 minutes with chloroazodine 1/3000, 17 days after infection", "result": "0,174 ± 0,015"}, {"measurement": "Mesure d'infectivité du virus VIH-1 (D.O.492)", "setting": "virus incubated 30 minutes with chloroazodine 1/3000, 21 days after infection", "result": "0,169 ± 0,000"}, {"measurement": "Mesure d'infectivité du virus VIH-1 (D.O.492)", "setting": "virus incubated 30 minutes with chloroazodine 1/3000, 24 days after infection", "result": "0,172 ± 0,031"}]}]}
